# In patent US20250320213A1, “Nitrogen-Containing Heterocyclic Compounds” (Pfizer Inc., priority 2024, published 2025):
# Target: T1, STAT6 (Homo sapiens, UniProt P42226)
# T1 construct: stably transfected HaCaT keratinocyte cell line, which expresses NanoLuc luciferase reporter gene under the transcriptional control of the STAT6 responsive promoter; endogenous in cells; host or cells: HaCaT keratinocyte reporter cell line (stably transfected with a NanoLuc reporter)
# T1 sequence (P42226 1-847): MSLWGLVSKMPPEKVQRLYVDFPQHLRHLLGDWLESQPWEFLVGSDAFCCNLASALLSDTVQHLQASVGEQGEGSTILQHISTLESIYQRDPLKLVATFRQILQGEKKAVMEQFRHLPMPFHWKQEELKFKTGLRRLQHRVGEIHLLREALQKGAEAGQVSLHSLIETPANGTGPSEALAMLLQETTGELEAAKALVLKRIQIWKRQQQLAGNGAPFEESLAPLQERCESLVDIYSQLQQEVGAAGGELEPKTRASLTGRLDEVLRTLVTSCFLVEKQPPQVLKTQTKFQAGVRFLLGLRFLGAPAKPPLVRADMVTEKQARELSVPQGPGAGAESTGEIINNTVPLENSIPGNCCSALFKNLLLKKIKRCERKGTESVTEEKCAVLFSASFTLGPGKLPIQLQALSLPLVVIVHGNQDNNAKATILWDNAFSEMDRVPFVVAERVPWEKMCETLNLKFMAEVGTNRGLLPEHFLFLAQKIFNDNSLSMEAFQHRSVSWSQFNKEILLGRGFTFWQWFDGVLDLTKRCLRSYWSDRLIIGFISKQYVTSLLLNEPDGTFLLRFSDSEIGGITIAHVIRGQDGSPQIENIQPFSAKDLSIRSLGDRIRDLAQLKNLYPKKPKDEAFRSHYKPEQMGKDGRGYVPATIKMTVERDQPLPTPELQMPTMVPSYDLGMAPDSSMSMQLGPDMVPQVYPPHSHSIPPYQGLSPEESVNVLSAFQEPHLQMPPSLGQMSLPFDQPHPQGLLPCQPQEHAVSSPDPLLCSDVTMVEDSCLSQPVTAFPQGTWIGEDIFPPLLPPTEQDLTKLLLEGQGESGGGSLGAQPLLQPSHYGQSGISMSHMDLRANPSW
# Assay: STAT6 Reporter Luciferase Assay (IL-13 stimulated HaCaT keratinocyte NanoLuc reporter cells)
# Type: cell-based
# Details: IL-13 stimulated HaCaT STAT6 NanoLuc reporter cells; read-out: Reporter EC50
# Procedure: Pharmacological measurements of STAT6 transcriptional activity through the IL-13-IL-13 receptor/IL-4 receptor pathway were made with a stably transfected HaCaT keratinocyte cell line, which expresses NanoLuc luciferase reporter gene under the transcriptional control of the STAT6 responsive promoter for IL-13Ra2. The readout of the STAT6 activity utilized Promega Nano-Glo Luciferase assay kit.
# The reporter cells were cultured in a growth media comprised of DMEM High Glucose, no calcium and no glutamine, 10% heat inactivated fetal bovine serum (HI FBS), 1% 100× Glutamax, and 100 U/mL Penicillin-Streptomycin (units of penicillin in 1 mL of streptomycin). Seven thousand cells were plated in 25 microliter (μL) per well in a 384-well, white bottom, tissue culture plate. Cells were cultured overnight at 37° C. The next day, test compounds (solubilized and serially diluted in DMSO, in an 11 point, 4-fold dilution series in duplicate) were spotted, 60 nanoliters (nL) per well, into a 384 well v-bottom polypropylene plate. Thirty μL per well of 37° C. dosing media (Dulbecco's modified eagle medium (DMEM) High Glucose, no calcium and no glutamine with 2% HI FBS) was added to the compound plate. Growth media was removed from the cell plate, and the cells were washed with DPBS. Twenty μL per well of compounds diluted in dosing media were transferred from the compound plate to the cell plate and the compounds were further diluted with an additional 15 μL of dosing media in the cell plate: the cell plate was incubated for two hours at 37° C. After two hours, STAT6 activity was stimulated with the addition of 5 μL per well of IL-13 (R&D Systems) in dosing media with a final concentration of 0.12 nM IL13. Cells were incubated at 37° C. for 4 hours to allow for reporter gene expression, then all media was removed from the plate. The cell plates were treated with assay buffer and Luciferase substrate from Nano-Glo Luciferase Assay Kit for 15 min and then measured for luminescence on an EnVision 2105 multilabel reader (PerkinElmer).
row,EC50,SMILES
1,1 nM,"COCC1(N)CCN(C(=O)Nc2ccc(CNC(=O)c3nn(C(C)C)c4c3CN(c3ccc(C(=O)N(C)C)cc3)C[C@@H]4C)cc2)C1 (single isomer, unassigned) [Example 672, (S)-N-(4-((R*)-3-amino-3-(methoxymethyl)pyrrolidine-1-carboxamido)benzyl)-5-(4-(dimethylcarbamoyl)phenyl)-1-isopropyl-7-methyl-4,5,6,7-tetrahydro-1H-pyrazolo[4,3-c]pyridine-3-carboxamide]"
2,2 nM,"COCC1(N)CCN(C(=O)Nc2ccc(CNC(=O)c3nn(C(C)C)c4c3CN(c3ccc(C(=O)N(C)C)cc3)C[C@@H]4C)cc2)C1 (single isomer, unassigned) [Example 673, (S)-N-(4-((R*)-3-amino-3-(methoxymethyl)pyrrolidine-1-carboxamido)benzyl)-5-(4-(dimethylcarbamoyl)phenyl)-1-isopropyl-7-methyl-4,5,6,7-tetrahydro-1H-pyrazolo[4,3-c]pyridine-3-carboxamide]"
3,0.3 nM,"CC(C)n1nc(C(=O)NCc2ccc(NC(=O)N3CCN(C)CC3)cc2)c2c1C(C(F)(F)F)CN(c1ccc(C(=O)N(C)C)cn1)C2 (single isomer, unassigned) [Example 692, rel-(R or S)-5-(5-(dimethylcarbamoyl)pyridin-2-yl)-1-isopropyl-N-(4-(4-methylpiperazine-1-carboxamido)benzyl)-7-(trifluoromethyl)-4,5,6,7-tetrahydro-1H-pyrazolo[4,3-c]pyridine-3-carboxamide]"
4,16 nM,"CC(C)n1nc(C(=O)NCc2ccc(NC(=O)N3CCN(C)CC3)cc2)c2c1C(C(F)(F)F)CN(c1ccc(C(=O)N(C)C)cn1)C2 (single isomer, unassigned) [Example 693, rel-(R or S)-5-(5-(dimethylcarbamoyl)pyridin-2-yl)-1-isopropyl-N-(4-(4-methylpiperazine-1-carboxamido)benzyl)-7-(trifluoromethyl)-4,5,6,7-tetrahydro-1H-pyrazolo[4,3-c]pyridine-3-carboxamide]"
5,0.3 nM,"CCn1nc(C(=O)NCc2ccc(NC(=O)N3CCN(C)CC3)cc2)c2c1C(C(F)(F)F)CN(c1ccc(C(=O)N(C)C)cn1)C2 (single isomer, unassigned) [Example 694, rel-(R or S)-5-(5-(dimethylcarbamoyl)pyridin-2-yl)-1-ethyl-N-(4-(4-methylpiperazine-1-carboxamido)benzyl)-7-(trifluoromethyl)-4,5,6,7-tetrahydro-1H-pyrazolo[4,3-c]pyridine-3-carboxamide]"
6,32 nM,"CCn1nc(C(=O)NCc2ccc(NC(=O)N3CCN(C)CC3)cc2)c2c1C(C(F)(F)F)CN(c1ccc(C(=O)N(C)C)cn1)C2 (single isomer, unassigned) [Example 695, rel-(R or S)-5-(5-(dimethylcarbamoyl)pyridin-2-yl)-1-ethyl-N-(4-(4-methylpiperazine-1-carboxamido)benzyl)-7-(trifluoromethyl)-4,5,6,7-tetrahydro-1H-pyrazolo[4,3-c]pyridine-3-carboxamide]"
7,10 nM,"CC(C)n1nc(C(=O)NCc2ccc(NC(=O)N3CCN(C)CC3)cc2)c2c1C(C(F)(F)F)CN(c1ccc(C(=O)N(C)C)cc1)C2 (single isomer, unassigned) [Example 702, rel-(R or S)-5-(4-(dimethylcarbamoyl)phenyl)-1-isopropyl-N-(4-(4-methylpiperazine-1-carboxamido)benzyl)-7-(trifluoromethyl)-4,5,6,7-tetrahydro-1H-pyrazolo[4,3-c]pyridine-3-carboxamide]"
8,0.2 nM,"CC(C)n1nc(C(=O)NCc2ccc(NC(=O)N3CCN(C)CC3)cc2)c2c1C(C(F)(F)F)CN(c1ccc(C(=O)N(C)C)cc1)C2 (single isomer, unassigned) [Example 705, rel-(R or S)-5-(4-(dimethylcarbamoyl)phenyl)-1-isopropyl-N-(4-(4-methylpiperazine-1-carboxamido)benzyl)-7-(trifluoromethyl)-4,5,6,7-tetrahydro-1H-pyrazolo[4,3-c]pyridine-3-carboxamide]"

# The remaining lines, values behind:
row,SMILES,EC50
1,"COCCC1(N)CCN(C(=O)Nc2ccc(CNC(=O)c3nn(C(C)C)c4c3CN(c3ccc(C(=O)N(C)C)cc3)C[C@@H]4C)cc2)C1 (single isomer, unassigned) [Example 671, (S)-N-(4-((R*)-3-amino-3-(2-methoxyethyl)pyrrolidine-1-carboxamido)benzyl)-5-(4-(dimethylcarbamoyl)phenyl)-1-isopropyl-7-methyl-4,5,6,7-tetrahydro-1H-pyrazolo[4,3-c]pyridine-3-carboxamide]",3 nM
2,"CCn1nc2c(c1C(=O)NCc1ccc(NC(=O)N(C)C)cc1)CN(c1ccc(C(=O)N(C)C)cn1)[C@@H](C)[C@@H]2C (stereo in doubt) [Example 316, rel-(6S,7S)-5-(5-(dimethylcarbamoyl)pyridin-2-yl)-N-(4-(3,3-dimethylureido)benzyl)-2-ethyl-6,7-dimethyl-4,5,6,7-tetrahydro-2H-pyrazolo[4,3-c]pyridine-3-carboxamide]",3770 nM
3,"CCn1nc2c(c1C(=O)NCc1ccc(NC(=O)N(C)C)cc1)CN(c1ccc(C(=O)N(C)C)cn1)[C@H](C)[C@H]2C (stereo in doubt) [Example 317, rel-(6R,7R)-5-(5-(dimethylcarbamoyl)pyridin-2-yl)-N-(4-(3,3-dimethylureido)benzyl)-2-ethyl-6,7-dimethyl-4,5,6,7-tetrahydro-2H-pyrazolo[4,3-c]pyridine-3-carboxamide]",355 nM
4,"CC(C)n1nc(C(=O)NCc2ccc(NC(=O)N3CC4CC4C3)cc2)c2c1CCN(c1ccc(C(=O)N(C)C)cn1)C2 (stereo not shown) [Example 186, N-(4-(3-azabicyclo[3.1.0]hexane-3-carboxamido)benzyl)-5-(5-(dimethylcarbamoyl)pyridin-2-yl)-1-isopropyl-4,5,6,7-tetrahydro-1H-pyrazolo[4,3-c]pyridine-3-carboxamide]",10 nM
5,"CC(=O)N[C@H]1CCN(C(=O)c2ccc(N3CCc4c(c(C(=O)NCc5ccc(NC(=O)N(C)C)cc5)nn4C(C)C)C3)nc2)C1 [Example 193, (S)-5-(5-(3-Acetamidopyrrolidine-1-carbonyl)pyridin-2-yl)-N-(4-(3,3-dimethylureido)benzyl)-1-isopropyl-4,5,6,7-tetrahydro-1H-pyrazolo[4,3-c]pyridine-3-carboxamide]",372 nM
6,"CC(C)n1nc(C(=O)NCc2ccc(NC(=O)N(C)C)cc2)c2c1CCN(c1ccc(C(=O)N3CCCOCC3)cn1)C2 [Example 195, 5-(5-(1,4-oxazepane-4-carbonyl)pyridin-2-yl)-N-(4-(3,3-dimethylureido)benzyl)-1-isopropyl-4,5,6,7-tetrahydro-1H-pyrazolo[4,3-c]pyridine-3-carboxamide]",164 nM

# Same assay, conditions: STAT6 NanoLuc luciferase reporter, IL-13 stimulated HaCaT keratinocyte cells; read-out: Reporter EC50
row,EC50,SMILES
1,5 nM,"CC(C)n1nc(C(=O)NCc2ccc(NC(=O)N3CCC(CC#N)CC3)cc2)c2c1CCN(c1ccc(C(=O)N(C)C)cn1)C2 [Example 149, N-(4-(4-(cyanomethyl)piperidine-1-carboxamido)benzyl)-5-(5-(dimethylcarbamoyl)pyridin-2-yl)-1-isopropyl-4,5,6,7-tetrahydro-1H-pyrazolo[4,3-c]pyridine-3-carboxamide]"
2,9 nM,"CC(C)n1nc(C(=O)NCc2ccc(NC(=O)N3CCCC(N(C)C)C3)cc2)c2c1CCN(c1ccc(C(=O)N(C)C)cn1)C2 (stereo not shown) [Example 151, N-(4-(3-(dimethylamino)piperidine-1-carboxamido)benzyl)-5-(5-(dimethylcarbamoyl)pyridin-2-yl)-1-isopropyl-4,5,6,7-tetrahydro-1H-pyrazolo[4,3-c]pyridine-3-carboxamide]"
